Data as given in patent US20240082212A1, “USE OF MDMA FOR TREATMENT OF STRESS-RELATED DISORDERS” (priority 2022, published 2024).
Entries after “also recorded” stand apart in the source; their conditions may differ.

Assays:
Serotonin 5-HT2B = Serotonin 5-HT2B (Homo sapiens, UniProt P41595); test: Eurofins Panlabs radioligand binding panel, serotonin 5-HT2B; conditions: 10 uM
cortical neurons = test: Neurite outgrowth in embryonic rat cortical neuron cultures; format: cell-based; conditions: 10 μM, 3 days, vs 0.1% sterile water vehicle
In short: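 Cortical neurons from E17 Wistar rat embryos were treated with compound for 3 days, then fixed and stained for βIII-tubulin. Neurite count, total length and branch points per neuron were measured by high-content imaging. Values are expressed as % of vehicle, n=12 wells from two cultures, with ANOVA and Dunnett's test.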

CD (Sprague Dawley) rats = test: Rat functional observation battery (FOB) neurobehavioral evaluation after cumulative SC dosing; format: in vivo
Protocol: The observations were assessed through a rat functional observation battery (FOB) and continuous physiological measurements on the day of cumulative dosing, which are provided in further detail below.
Methods. A total of 42 adult male CD® (Sprague Dawley) rats (Charles River Laboratories) were surgically implanted with DSI radiotelemetry devices by personnel at Charles River Laboratories Raleigh, NC, per their test site SOPs. Telemetry devices supported continuous recording of temperature, activity, blood pressure and heart rate. Telemeterized rats were shipped to the Charles River Laboratories testing facility (Mattawan, MI) and acclimated to the environment for at least 1 week prior to experimentation. Animals were pair-housed in solid bottom cages with nonaromatic bedding. On the dosing day, animals were singly housed and then returned to the paired cohort following the dosing/telemetry recording phase. Diet (Lab Diet® Certified Rodent Diet #5CR4) and tap water via an automatic water system were available ad libitum, except during designated procedures. Temperature and humidity were maintained according to the Testing Facility SOP. Animals were randomized into treatment groups using a standard, by weight, measured value randomization procedure. Body weight was determined for each rat prior to dosing.
As illustrated in the Table, a total of 36 rats were included in the study. The vehicle and 2 test article doses were administered in a volume of 1 mL/kg to each of 3 groups of n=12 telemeterized rats via subcutaneous injection four times on a given day, followed by neurobehavioral evaluations. This series was repeated 3 times on study. Each group received all 3 dose levels of the applicable test or control article in ascending order with a 1-week washout between dose levels.
Mortality/cage side clinical observations were conducted for all study animals at least twice daily beginning upon receipt through termination, except on days of receipt and termination where frequency was at least once daily. Detailed clinical observations were conducted for all study animals prior to each of the four cumulative doses in a series. Individual body weights were conducted for all study animals at transfer, prior to randomization, on the day of dosing on each of the 3 cycles of dosing. The body weights recorded at transfer and prior to randomization are not reported but are maintained in the study file. Veterinary care was available throughout the course of the study, and animals were examined by the veterinary staff as needed based on clinical signs or other changes. All animals were provided with HydroGel the night prior to their respective dosing days to potentially mitigate any animal welfare issues related to fluid loss/dehydration.
Neurobehavioral evaluations (blinded) were conducted for all study animals 1 hour following the last (4th) cumulative dose of the series. The neurobehavioral parameters evaluated included: activity measurements (arousal/alertness, posture/body carriage, stereotypy, rearing, and appearance), autonomic measurements (exophthalmus, lacrimation, erected fur, pupil response, salivation, defecation, and palpebral closure/ptosis), excitability measurements (vocalizations, startle response, ease of removal, handling reactivity, and convulsions), neuromuscular measurements (gait/mobility, grip strength/response, air righting reflex, tremor, and body tone), physiological measurements (respiration and body temperature), and sensorimotor measurements (touch response/tactile reflex and thermal response).

[1] = 1 h after last of 4 hourly SC injections, R-MDMA and racemic MDMA 10, 20 mg/kg/day, S-MDMA 5, 10 mg/kg/day
[2] = 1 h after last of 4 hourly SC injections, racemic MDMA 10, 20 mg/kg/day, S-MDMA 5, 10 mg/kg/day
[3] = FOB, cumulative SC dosing, dose groups stated in the value, listed as Rac-MDMA
[4] = FOB, cumulative SC dosing, dose groups stated in the value, listed as Rac.-MDMA

Chain of Serotonin 5-HT2B (P41595 whole entry): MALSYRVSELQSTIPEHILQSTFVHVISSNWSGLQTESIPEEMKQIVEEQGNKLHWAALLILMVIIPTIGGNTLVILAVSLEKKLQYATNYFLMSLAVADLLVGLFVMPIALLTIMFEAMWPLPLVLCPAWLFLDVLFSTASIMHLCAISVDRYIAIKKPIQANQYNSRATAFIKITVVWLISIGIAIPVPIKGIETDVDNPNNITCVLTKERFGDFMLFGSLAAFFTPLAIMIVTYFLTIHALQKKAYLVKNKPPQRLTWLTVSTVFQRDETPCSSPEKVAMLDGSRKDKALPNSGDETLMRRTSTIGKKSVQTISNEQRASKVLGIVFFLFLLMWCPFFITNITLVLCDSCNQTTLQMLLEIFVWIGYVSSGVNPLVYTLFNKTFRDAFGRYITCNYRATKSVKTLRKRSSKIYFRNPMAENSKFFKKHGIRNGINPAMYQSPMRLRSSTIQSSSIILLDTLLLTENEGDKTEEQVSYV

## CNC(C)Cc1ccc2c(c1)OCO2 (racemic) [Racemic MDMA, 3,4-methylenedioxymethamphetamine]
Serotonin 5-HT2B
  % inhibition of binding or activity: 85%
Cortical neurons
  neurite number (#): significantly increased
  neurite total length (μm): significantly increased
  total number of branch points (#): significantly increased
CD (Sprague Dawley) rats; [1]
  arousal/alertness and rearing: general increase in overall levels of arousal/alertness and rearing
  ease of removal from the home cage and handling reactivity (excitability): Dose-dependent increased difficulty in removal from the home cage and increased handling reactivity
  forelimb grip strength: dose-dependent statistically significant decreases in forelimb grip strength
  salivation and erected fur (autonomic): Dose-dependent increased salivation and erected fur
  unkempt appearance: increased incidence of unkempt appearance in a dose-dependent manner
CD (Sprague Dawley) rats; [2]
  general gait/mobility changes: General gait/mobility changes were only observed
  respiration: Rapid respiration was noted
CD (Sprague Dawley) rats; [3]
  Rank Order Activity Measurement Effects: Rac-MDMA (0 mg/kg/day) < Rac-MDMA (20 mg/kg/day) < Rac-MDMA (10 mg/kg/day); also recorded: S-MDMA (10 mg/kg/day) = R-MDMA (10 mg/kg/day) = Rac-MDMA (10 mg/kg/day)
  Rank Order Autonomic Measurement Effects: R-MDMA (20 mg/kg/day) < S-MDMA (10 mg/kg/day) < Rac-MDMA (20 mg/kg/day); also recorded: Rac-MDMA (0 mg/kg/day) < Rac-MDMA (10 mg/kg/day) < Rac-MDMA (20 mg/kg/day); also recorded: R-MDMA (10 mg/kg/day) < S-MDMA (10 mg/kg/day) = Rac-MDMA (20 mg/kg/day)
  Rank Order Excitability Measurement Effects: S-MDMA (5 mg/kg/day) < Rac-MDMA (10 mg/kg/day); also recorded: R-MDMA (20 mg/kg/day) = S-MDMA (10 mg/kg/day) < Rac-MDMA (20 mg/kg/day); also recorded: Rac-MDMA (0 mg/kg/day) < Rac-MDMA (10 mg/kg/day) < Rac-MDMA (20 mg/kg/day); also recorded: R-MDMA (10 mg/kg/day) < S-MDMA (10 mg/kg/day) < Rac-MDMA (20 mg/kg/day)
  Rank Order Neuromuscular Measurement Effects: R-MDMA (20 mg/kg/day) = S-MDMA (10 mg/kg/day) < Rac-MDMA (20 mg/kg/day); also recorded: Rac-MDMA (0 mg/kg/day) < Rac-MDMA (10 mg/kg/day) < Rac-MDMA (20 mg/kg/day); also recorded: R-MDMA (10 mg/kg/day) < S-MDMA (10 mg/kg/day) < Rac-MDMA (20 mg/kg/day)
  Rank Order Physiological Measurement Effects: R-MDMA (20 mg/kg/day) < S-MDMA (10 mg/kg/day) = Rac-MDMA (20 mg/kg/day); also recorded: Rac-MDMA (0 mg/kg/day) < Rac-MDMA (10 mg/kg/day) < Rac-MDMA (20 mg/kg/day); also recorded: R-MDMA (10 mg/kg/day) < S-MDMA (10 mg/kg/day) = Rac-MDMA (20 mg/kg/day)
  Rank Order Sensorimotor Measurement Effects: S-MDMA (5 mg/kg/day) < Rac-MDMA (10 mg/kg/day) < R-MDMA (10 mg/kg/day); also recorded: S-MDMA (10 mg/kg/day) < Rac-MDMA (20 mg/kg/day) < R-MDMA (20 mg/kg/day); also recorded: Rac-MDMA (0 mg/kg/day) < Rac-MDMA (10 mg/kg/day) < Rac-MDMA (20 mg/kg/day)
CD (Sprague Dawley) rats; [4]
  Rank Order Activity Measurement Effects: S-MDMA (5 mg/kg/day) < R-MDMA (10 mg/kg/day) < Rac.-MDMA (10 mg/kg/day); also recorded: Rac.-MDMA (20 mg/kg/day) < S-MDMA (10 mg/kg/day) < R-MDMA (20 mg/kg/day); also recorded: Rac.-MDMA (20 mg/kg/day) < S-MDMA (10 mg/kg/day) < R-MDMA (10 mg/kg/day)
  Rank Order Autonomic Measurement Effects: R-MDMA (10 mg/kg/day) < S-MDMA (5 mg/kg/day) < Rac.-MDMA (10 mg/kg/day)
  Rank Order Excitability Measurement Effects: R-MDMA (10 mg/kg/day) < S-MDMA (5 mg/kg/day) < Rac.-MDMA (10 mg/kg/day)
  Rank Order Neuromuscular Measurement Effects: R-MDMA (10 mg/kg/day) < S-MDMA (5 mg/kg/day) < Rac.-MDMA (10 mg/kg/day)
  Rank Order Physiological Measurement Effects: R-MDMA (10 mg/kg/day) < S-MDMA (5 mg/kg/day) < Rac.-MDMA (10 mg/kg/day)
CD (Sprague Dawley) rats; at levels at least two-fold that of vehicle-treated groups, 1 h after last of 4 hourly SC injections
  thermal response times: Statistically significant increases in thermal response times
CD (Sprague Dawley) rats; primarily noted at 20 mg/kg/day racemic-MDMA (4 hourly SC injections)
  neuromuscular observations: observations of ataxia, hunched posture, and tip-toe walking
